# Data as given in US9850283B2, “Macrocyclic inhibitors of the PD-1/PD-L1 and CD80(B7-1)/PD-L1 protein/protein interactions” (BRISTOL-MYERS SQUIBB COMPANY, priority 2013, dated 2017).
# Like-named read-outs stand apart in the source and are kept apart here. Positions of bridges follow the written chain, without caps; N, C: chain ends. Non-standard residues stand in square brackets, D forms with d. Residues, ends and D or L forms follow the SMILES beside them. ξ: configuration not given here. Phe(3,4,5-F3) = N[C@@H](Cc1cc(F)c(F)c(F)c1)C(=O)O; Pro(4R-NH2) = N[C@H]1CN[C@H](C(=O)O)C1; Bta = N[C@@H](Cc1csc2ccccc12)C(=O)O; Hyp = O=C(O)[C@@H]1C[C@@H](O)CN1; NMeF = CN[C@@H](Cc1ccccc1)C(=O)O; dHyp = O=C(O)[C@H]1C[C@H](O)CN1; dNMeNle = CCCC[C@@H](NC)C(=O)O; NMeNle = CCCC[C@H](NC)C(=O)O; NMeM = CN[C@@H](CCSC)C(=O)O; Pip = O=C(O)[C@@H]1CCCCN1; dPip = O=C(O)[C@H]1CCCCN1; NMeA = CN[C@@H](C)C(=O)O; dDap = NC[C@@H](N)C(=O)O; Dab = NCC[C@H](N)C(=O)O; Dap = NC[C@H](N)C(=O)O; ξP = O=C(O)C1CCCN1; ξC = NC(CS)C(=O)O
# Experiments:
# [1] = molecular target: CMV-specific T cells (Homo sapiens, UniProt Q9NZQ7); test: CMV-specific T cell function assay (IFNγ secretion, ELISA); format: cell-based
# CMV-specific T cells, sequence (Q9NZQ7 19-290): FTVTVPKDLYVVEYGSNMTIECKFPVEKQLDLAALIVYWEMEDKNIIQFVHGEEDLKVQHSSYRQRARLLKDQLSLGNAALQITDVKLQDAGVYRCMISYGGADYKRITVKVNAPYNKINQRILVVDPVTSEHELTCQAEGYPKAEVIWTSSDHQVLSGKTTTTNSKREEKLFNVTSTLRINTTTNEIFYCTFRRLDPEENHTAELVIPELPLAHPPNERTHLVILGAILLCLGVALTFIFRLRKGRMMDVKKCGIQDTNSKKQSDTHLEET
# Protocol: CMV-specific T Cell Function Assay. […] AIM-V medium (Life Technologies, Grand Island, N.Y.) supplemented with 10% heat-inactivated fetal bovine serum (FBS, Sigma, St Louis, Mo.) was used at a total volume of 200 µL/well in triplicate. The cells were cultured for 4 days at 37° C., 5% CO2 at which time culture supernatant was harvested for determination of secreted IFNγ by ELISA (OptEIA hIFNγ ELISA Kit, BD Biosciences, San Jose, Calif.).
# [2] = molecular target: T1, Human PD-L1/PD-1 (Homo sapiens, UniProt Q9NZQ7); test: HTRF PD-1-Ig/PD-L1-His binding assay (human PD-L1)
# T1 construct: made in house; host or cells: HEK293T
# T1 sequence (Q9NZQ7 with tags, fused parts or gaps): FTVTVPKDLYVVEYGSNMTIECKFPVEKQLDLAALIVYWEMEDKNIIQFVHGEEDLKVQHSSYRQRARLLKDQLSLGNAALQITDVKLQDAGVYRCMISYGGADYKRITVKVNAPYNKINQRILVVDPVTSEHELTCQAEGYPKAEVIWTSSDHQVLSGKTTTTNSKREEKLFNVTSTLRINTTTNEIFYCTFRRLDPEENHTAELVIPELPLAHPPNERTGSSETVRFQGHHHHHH
# Procedure, shortened: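 Readout: time-resolved FRET between Eu cryptate-labeled anti-Ig (1 nM final) and APC-labeled anti-His (20 nM final) antibodies. These detect interaction of Fc-fused PD-1 with His-tagged human PD-L1 in dPBS containing 0.1% BSA and 0.05% Tween-20.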
# [3] = molecular target: T2, LK35.2-hPD-L1 cells / PE-labeled PD-1-Ig (Homo sapiens, UniProt Q9NZQ7); test: LK35.2-hPD-L1 cell binding high-content screening assay; format: cell-based
# T2 construct: expressed in transfected cells; host or cells: LK35.2 mouse B cell line
# T2 sequence (Q9NZQ7 19-290): as the sequence (Q9NZQ7 19-290) above
# Procedure, shortened: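 Fluorescent PD-1-Ig binding to PD-L1-expressing LK35.2 cells, imaged after washing. Conditions: 1 nM PE-PD-1-Ig, 37 °C, 1 h, RPMI with 10% fetal calf serum.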
# [4] = value given instead of cluster, read-out: CMV Recall EC50 value
# [5] = value given instead of cluster, read-out: HTRF IC50 value
# [6] = cell binding assay, cell line not given, value given instead of cluster, read-out: CBA IC50 value
# [7] = numeric value, read-out: CMV Recall EC50 values
# [8] = numeric value, read-out: HTRF IC50 values
# [9] = cell binding assay, cell line not given, numeric value, read-out: CBA IC50 values
# [10] = read-out: CMV Recall EC50 value
# [11] = cell line of CBA not given (LK35.2-hPD-L1 or 293T-hPD-L1), read-out: CBA IC50 value
SMILES,"EC50 [1, 4] [nM]","IC50 [2, 5] [nM]","IC50 [3, 6] [nM]","EC50 [1, 7] [nM]","IC50 [2, 8] [nM]","IC50 [3, 9] [nM]","EC50 [1, 10] [nM]",also measured
CCCC[C@H]1C(=O)N(C)[C@@H](CCCC)C(=O)N[C@@H](CCN)C(=O)N[C@H](C(=O)NCC(N)=O)CSCC(=O)N[C@@H](Cc2ccc(O)cc2)C(=O)N(C)[C@@H](C)C(=O)N[C@@H](CCN)C(=O)N2CCC[C@H]2C(=O)N[C@@H](Cc2c[nH]cn2)C(=O)N[C@@H](CCC(=O)O)C(=O)N2C[C@H](O)C[C@H]2C(=O)N[C@@H](Cc2c[nH]c3ccccc23)C(=O)N[C@@H](CO)C(=O)N[C@@H](Cc2c[nH]c3ccccc23)C(=O)N1C [Example 5093] ({CH2CO}-Y[NMeA][Dab]PHE[Hyp]WSW[NMeNle][NMeNle][Dab]CG-NH2; thioether N-14),100,6.76,3.14,–,–,–,–,–
CCCC[C@H]1C(=O)N[C@@H](CCCNC(=N)N)C(=O)NC(C(=O)NCC(N)=O)CSCC(=O)N[C@@H](Cc2ccc(O)cc2)C(=O)N(C)[C@@H](C)C(=O)N[C@@H](CC(N)=O)C(=O)N2CCC[C@H]2C(=O)N[C@@H](Cc2cnc[nH]2)C(=O)N[C@@H](CC(C)C)C(=O)N2C[C@H](O)C[C@H]2C(=O)N[C@@H](Cc2c[nH]c3ccccc23)C(=O)N[C@@H](CO)C(=O)N[C@@H](Cc2c[nH]c3ccccc23)C(=O)N(C)[C@@H](CCSC)C(=O)N1C (stereo partly drawn) [Example 9026],–,–,–,34.4,3.47,0.948,–,–
CCCC[C@H]1C(=O)N([13CH3])[C@@H](CCCC)C(=O)N[C@@H](CCCNC(=N)N)C(=O)N[C@H](C(=O)NCC(N)=O)CSCC(=O)N[C@@H](Cc2ccc(O)cc2)C(=O)N([13CH3])[C@@H](C)C(=O)N[C@@H](CC(N)=O)C(=O)N2CCC[C@H]2C(=O)N[C@@H](Cc2cnc[nH]2)C(=O)N[C@@H](CC(C)C)C(=O)N2CCC[C@H]2C(=O)N[C@@H](Cc2c[nH]c3ccccc23)C(=O)N[C@@H](CO)C(=O)N[C@@H](Cc2csc3ccccc23)C(=O)N1[13CH3] [Example 6035],5.75,4.97,0.763,–,–,–,–,–
"CCCC[C@H]1C(=O)N2CCC[C@@H]2C(=O)N2C[C@H](N)C[C@H]2C(=O)N[C@@H](C(C)C)C(=O)N(C)[C@@H](Cc2ccccc2)C(=O)N[C@@H](Cc2ccc(O)cc2)C(=O)N2CCCC[C@@H]2C(=O)N[C@@H](Cc2c[nH]c3ccccc23)C(=O)N[C@@H](Cc2ccc(O)cc2)C(=O)N[C@@H](CC(C)C)C(=O)N[C@H](C(=O)NCC(N)=O)CSCC(=O)N[C@@H](Cc2cc(F)c(F)c(F)c2)C(=O)N(C)[C@@H](Cc2ccccc2)C(=O)N1C [Example 3194] ({CH2CO}-[Phe(3,4,5-F3)][NMeF][NMeNle][dP][Pro(4R-NH2)]V[NMeF]Y[dPip]WYLCG-NH2; thioether N-13)",–,–,–,–,–,–,25.2,"IC50 ([2]; read-out: HTRF IC50 value): 4.39 nM; IC50 [3, 11]: 1.15 nM"
CCCC[C@H]1C(=O)N[C@@H](CCCNC(=N)N)C(=O)NC(C(=O)NCC(N)=O)CSCC(=O)N[C@@H](Cc2ccc(O)cc2)C(=O)N(C)[C@@H](C)C(=O)N[C@@H](CC(N)=O)C(=O)N2CCC[C@H]2C(=O)N[C@@H](CN)C(=O)N[C@@H](CC(C)C)C(=O)N2C[C@H](O)C[C@H]2C(=O)N[C@@H](Cc2c[nH]c3ccccc23)C(=O)N[C@@H](CO)C(=O)N[C@@H](Cc2c[nH]c3ccccc23)C(=O)N(C)[C@@H](CCSC)C(=O)N1C (stereo partly drawn) [Example 9091] ({CH2CO}-Y[NMeA]NP[Dap]L[Hyp]WSW[NMeM][NMeNle]R[ξC]G-NH2; thioether N-14),–,–,–,5.6,774,3.03,–,–
CCCC[C@@H]1C(=O)N(C)[C@H](CCCC)C(=O)N[C@@H](C)C(=O)N[C@@H](C(=O)NCC(N)=O)CSCC(=O)N[C@@H](Cc2ccc(O)cc2)C(=O)N2CCCC2C(=O)N[C@H](CC(=O)O)C(=O)N2CCC[C@H]2C(=O)N[C@H](CN)C(=O)N[C@@H](CC(=O)O)C(=O)N2CCCC2C(=O)N[C@H](Cc2c[nH]c3ccccc23)C(=O)N[C@@H](CCN)C(=O)N[C@@H](Cc2c[nH]c3ccccc23)C(=O)N1C (stereo partly drawn) [Example 1210] ({CH2CO}-Y[ξP][dD]P[dDap]D[ξP][dW][Dab]W[dNMeNle][dNMeNle]A[dC]G-NH2; thioether N-14),–,–,–,–,–,–,> 2500,"IC50 ([2]; cluster symbol, read-out: HTRF IC50 cluster): > 30.5 nM; IC50 ([3]; cluster symbol, cell line of CBA not given (LK35.2-hPD-L1 or 293T-hPD-L1), read-out: CBA IC50 cluster): > 74.3 nM"
CCCC[C@H]1C(=O)N(C)[C@@H](CCCC)C(=O)N[C@@H](CC(C)C)C(=O)N[C@H](C(=O)NCC(N)=O)CSCC(=O)N[C@@H](Cc2ccc(O)cc2)C(=O)N(C)[C@@H](C)C(=O)N[C@@H](CC(N)=O)C(=O)N2CCC[C@H]2C(=O)N[C@@H](CN)C(=O)N[C@@H](CCC(=O)O)C(=O)N2C[C@H](O)C[C@H]2C(=O)N[C@@H](Cc2c[nH]c3ccccc23)C(=O)N[C@@H](CCN)C(=O)N[C@@H](Cc2c[nH]c3ccccc23)C(=O)N1C [Example 5067] ({CH2CO}-Y[NMeA]NP[Dap]E[Hyp]W[Dab]W[NMeNle][NMeNle]LCG-NH2; thioether N-14),3.27,5.77,1.81,–,–,–,–,–
CCCC[C@H]1C(=O)N(C)[C@@H](CCCC)C(=O)N[C@@H](CCCNC(=N)N)C(=O)N[C@H](C(=O)NCC(N)=O)CSCC(=O)N[C@@H](Cc2ccc(O)cc2)C(=O)N2CCCC[C@H]2C(=O)N[C@@H](CC(N)=O)C(=O)N2CCC[C@H]2C(=O)N[C@@H](Cc2cnc[nH]2)C(=O)N[C@@H](CCC(=O)O)C(=O)N2C[C@H](O)C[C@H]2C(=O)N[C@@H](Cc2c[nH]c3ccccc23)C(=O)N[C@@H](CO)C(=O)N[C@@H](Cc2c[nH]c3ccccc23)C(=O)N1C [Example 1237] ({CH2CO}-Y[Pip]NPHE[Hyp]WSW[NMeNle][NMeNle]RCG-NH2; thioether N-14),–,–,–,–,–,–,21.9,"IC50 ([2]; read-out: HTRF IC50 value): 16.5 nM; IC50 [3, 11]: 4.92 nM"
CCCC[C@H]1C(=O)N(C)[C@@H](CCCC)C(=O)N[C@@H](CCCNC(=N)N)C(=O)NC(C(=O)N[C@@H](CO)C(N)=O)CSCC(=O)N[C@@H](Cc2ccc(O)cc2)C(=O)N(C)[C@@H](C)C(=O)N[C@@H](CC(N)=O)C(=O)N2CCC[C@H]2C(=O)N[C@@H](Cc2cnc[nH]2)C(=O)N[C@@H](CC(C)C)C(=O)N2CCC[C@H]2C(=O)N[C@@H](Cc2c[nH]c3ccccc23)C(=O)N[C@@H](CO)C(=O)N[C@@H](Cc2csc3ccccc23)C(=O)N1C (stereo partly drawn) [Example 9031] ({CH2CO}-Y[NMeA]NPHLPWS[Bta][NMeNle][NMeNle]R[ξC]S-NH2; thioether N-14),–,–,–,39.4,7.15,0.643,–,–
CCCC[C@H]1C(=O)N(C)[C@@H](CCCC)C(=O)N[C@@H](CCCNC(=N)N)C(=O)N[C@H](C(=O)NCC(N)=O)CSCC(=O)N[C@@H](Cc2ccc(O)cc2)C(=O)N(C)[C@@H](C)C(=O)N[C@@H](CCN)C(=O)N2CCC[C@H]2C(=O)N[C@@H](Cc2cnc[nH]2)C(=O)N[C@@H](CCC(=O)O)C(=O)N2C[C@H](O)C[C@H]2C(=O)N[C@@H](Cc2c[nH]c3ccccc23)C(=O)N[C@@H](CO)C(=O)N[C@@H](Cc2c[nH]c3ccccc23)C(=O)N1C [Example 5025] ({CH2CO}-Y[NMeA][Dab]PHE[Hyp]WSW[NMeNle][NMeNle]RCG-NH2; thioether N-14),2.3,7.43,1.16,–,–,–,–,–
"CCCC[C@H]1C(=O)N2C[C@@H](O)C[C@@H]2C(=O)N[C@@H](CC(=O)O)C(=O)N[C@@H](C(C)C)C(=O)N(C)[C@@H](Cc2ccccc2)C(=O)N[C@@H](Cc2ccc(O)cc2)C(=O)N2CCCC[C@@H]2C(=O)N[C@@H](Cc2c[nH]c3ccccc23)C(=O)N[C@@H](Cc2ccc(O)cc2)C(=O)N[C@@H](CC(C)C)C(=O)N[C@H](C(=O)NCC(N)=O)CSCC(=O)N[C@@H](Cc2cc(F)c(F)c(F)c2)C(=O)N(C)[C@@H](Cc2ccccc2)C(=O)N1C [Example 3592] ({CH2CO}-[Phe(3,4,5-F3)][NMeF][NMeNle][dHyp]DV[NMeF]Y[dPip]WYLCG-NH2; thioether N-13)",0.62,4,0.158,–,–,–,–,–
CCCC[C@H]1C(=O)N(C)[C@@H](CCCC)C(=O)N[C@@H](CCCNC(=N)N)C(=O)NC(C(=O)NCC(N)=O)CSCC(=O)N[C@@H](Cc2ccc(O)cc2)C(=O)N(C)[C@@H](C)C(=O)N[C@@H](CC(N)=O)C(=O)N2CCC[C@H]2C(=O)N[C@@H](Cc2cnc[nH]2)C(=O)N[C@@H](CO)C(=O)N2CCC[C@H]2C(=O)N[C@@H](Cc2c[nH]c3ccccc23)C(=O)N[C@@H](CO)C(=O)N[C@@H](Cc2csc3ccccc23)C(=O)N1C (stereo partly drawn) [Example 9068] ({CH2CO}-Y[NMeA]NPHSPWS[Bta][NMeNle][NMeNle]R[ξC]G-NH2; thioether N-14),–,–,–,249,0.385,2.05,–,–
CCCC[C@@H]1C(=O)N(C)[C@H](CCCC)C(=O)N[C@@H](C)C(=O)N[C@@H](C(=O)NCC(N)=O)CSCC(=O)N[C@@H](Cc2ccc(O)cc2)C(=O)N2CCCC2C(=O)N[C@H](CC(=O)O)C(=O)N2CCC[C@H]2C(=O)N[C@H](Cc2c[nH]cn2)C(=O)N[C@@H](CCC(=O)O)C(=O)N2CCCC2C(=O)N[C@H](Cc2c[nH]c3ccccc23)C(=O)N[C@@H](CCN)C(=O)N[C@@H](Cc2c[nH]c3ccccc23)C(=O)N1C (stereo partly drawn) [Example 1215] ({CH2CO}-Y[ξP][dD]P[dH]E[ξP][dW][Dab]W[dNMeNle][dNMeNle]A[dC]G-NH2; thioether N-14),–,–,–,–,–,–,508,"IC50 ([2]; read-out: HTRF IC50 value): 50.9 nM; IC50 [3, 11]: 92.5 nM"
